According to PubChem BioAssay AID785 (University of Pittsburgh Molecular Library Screening Center, 2007):

molecular target: Serine/threonine-protein kinase PLK1 (Homo sapiens) (UniProt P53350); test: PLK1 kinase inhibitor potency, dose response, biochemical, TR-FRET, IC50 (AID 785); settings: recombinant human Plk1, fluorescence polarization phosphopeptide binding, 3 h
Sequence (P53350 whole entry, looked up): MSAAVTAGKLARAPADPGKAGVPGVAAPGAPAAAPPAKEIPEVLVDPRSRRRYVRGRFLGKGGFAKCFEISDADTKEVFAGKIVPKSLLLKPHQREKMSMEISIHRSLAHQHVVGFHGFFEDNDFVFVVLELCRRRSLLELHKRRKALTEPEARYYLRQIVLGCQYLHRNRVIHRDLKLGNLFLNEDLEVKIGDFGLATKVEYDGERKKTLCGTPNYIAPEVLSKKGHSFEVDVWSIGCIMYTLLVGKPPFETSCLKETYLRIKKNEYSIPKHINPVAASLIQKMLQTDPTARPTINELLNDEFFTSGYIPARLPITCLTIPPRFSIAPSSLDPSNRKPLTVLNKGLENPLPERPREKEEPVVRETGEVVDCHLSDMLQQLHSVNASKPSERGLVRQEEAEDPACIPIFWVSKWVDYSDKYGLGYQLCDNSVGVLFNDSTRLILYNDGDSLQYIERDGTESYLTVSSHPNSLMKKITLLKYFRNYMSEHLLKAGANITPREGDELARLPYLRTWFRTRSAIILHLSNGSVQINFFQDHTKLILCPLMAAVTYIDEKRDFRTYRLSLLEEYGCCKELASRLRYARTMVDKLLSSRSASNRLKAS

SMILES | IC50
CC1CCN(c2ncnc3nc[nH]c23)CC1 | 3.13 µM
Cc1ncc([N+](=O)[O-])n1CCOC(=O)Nc1ccc(Cl)c(Cl)c1 | 0.775 µM
Cc1c(C(=O)OC(C)C)sc2nc[nH]c(=O)c12 | 4.01 µM
CCc1nc2n[nH]c(N)c2c2c1CSC(C)(C)C2 | 5.1 µM
NC(=O)c1ccc(C(F)(F)F)n(Cc2cccc(Cl)c2)c1=O | 22.8 µM
Cc1cc(C(C#N)c2cccc(Cl)c2)n2ncnc2n1 (centres undefined) | 5.98 µM
O=c1[nH]cnc2scc(-c3cccs3)c12 | 4.24 µM
O=c1[nH]cnc2sc(-c3ccccc3)cc12 | 6.08 µM
Nc1nc2ccc([N+](=O)[O-])c(N)c2s1 | 0.235 µM
Nc1ncnc(Nc2cccc(C(F)(F)F)c2)n1 | 0.469 µM
Nc1[nH]ncc1N=Nc1ccc(Cl)cc1 | 2.22 µM
COc1ccccc1Nc1ncnc2nc[nH]c12 | 1.01 µM
Cc1nc2c([nH]1)C1(CCN(Cc3ccccc3)CC1)C(C#N)=C(N)O2 | 0.823 µM
CCOc1ccc(N2Nc3n[nH]c(N)c3N2)cc1 | 3.4 µM
Nc1ncnc(Nc2ccccc2C(F)(F)F)n1 | 4.84 µM
Cc1cccc(N=Nc2c(N)n[nH]c2-c2ccc(Cl)cc2)c1 | 18.5 µM
c1ccc2c(-c3ccncc3)c[nH]c2c1 | 4.12 µM
Cc1[nH]nc2c1C1(CCN(Cc3ccccc3)CC1)C(C#N)=C(N)O2 | 1.4 µM
CC1Cc2nc(SCC(=O)Nc3nccs3)n(C)c(=O)c2S1 (centres undefined) | 9.72 µM
COc1cc(/C=C(\C#N)c2[nH]nc(N)c2C#N)cc(OC)c1O | 1.86 µM

SMILES | IC50
O=C(CSc1n[nH]c(-c2ccc(Cl)cc2Cl)n1)Nc1ccccn1 | 0.534 µM
CCOC(=O)c1sc2nc[nH]c(=O)c2c1C | 3.09 µM
Cc1cccc(Nc2ncnc3nc[nH]c23)c1 | 2.23 µM
C=CCNc1nc(N)c(C(=O)c2ccc3c(c2)OCO3)s1 | 3.85 µM
N#C/C(=N\Nc1c(Cl)cccc1Cl)C(=O)NN | 0.814 µM
O=C(O)c1ccc2c(c1)[C@@H]1C=CC[C@@H]1[C@H](c1ccccn1)N2 | 16.9 µM
CCOC(=O)c1c(-c2ccncc2)csc1N | 7.01 µM
CCOc1c(Br)ccc2c1sc1nc[nH]c(=O)c12 | 2.15 µM
COc1ccc(Cn2c(N)c(C(=O)NCc3ccco3)c3nc4ccccc4nc32)cc1OC | 8.82 µM
COC(=O)c1sc2nc[nH]c(=O)c2c1C | 1.44 µM
Cc1oc2ncnc(N)c2c1C | 3.75 µM
COc1cccc(Nc2ncnc3nc[nH]c23)c1 | 2.37 µM
COc1ccc(N2Nc3n[nH]c(N)c3N2)cc1 | 1.64 µM
COC(=O)c1c(-c2ccc(Br)cc2)noc1N | 7.93 µM
O=C(Nc1cccnc1)c1cnn2cccnc12 | 4.07 µM
NNc1ncnc2c1cnn2-c1ccccc1 | 4.18 µM
O=c1[nH]cnc2cc(-c3ccccc3)sc12 | 6.2 µM
Nc1[nH]ncc1C(=O)Nc1cccc(C(F)(F)F)c1 | 0.888 µM
N#Cc1c(-c2ccc3c(c2)OCO3)csc1N | 10.7 µM
